Assay results published in publication PMC8380656, “The structure and flexibility analysis of the Arabidopsis synaptotagmin 1 reveal the basis of its regulation at membrane contact sites” (Life Science Alliance, 2021).

T1: SYT1C2A (Arabidopsis thaliana, UniProt Q9SKR2)
T1 construct: gene SYT1; C2A domain, residues K253-E397; pGEX6P1, GST tag cleaved with PreScission protease; expressed in E. coli Rosetta 2 (DE3) pLysS
T1 sequence (Q9SKR2 253-397): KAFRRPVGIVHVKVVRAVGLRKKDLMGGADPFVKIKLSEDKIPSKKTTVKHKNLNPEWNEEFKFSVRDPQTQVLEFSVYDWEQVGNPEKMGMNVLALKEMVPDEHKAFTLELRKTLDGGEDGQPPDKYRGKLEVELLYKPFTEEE


What was measured:
SYT1C2A = target: T1, SYT1C2A; assay: thermal shift, label-free nanoDSF (Tycho NT.[…]); format: binding; settings: 58 μM ligand, 5.8 μM protein, 20 μM EGTA, Tris-HCl pH 8.0; absolute inflexion temperature, unbound control 57.4 ± 0.5; polybasic site
[1] = target: the molecule itself; assay: SAXS (SEC-SAXS); 45 ul of SYT1SMPC2A at 6.6 mg ml^-1 injected onto Superdex 200 increase 3.2/300 at 20°C; 20 mM Tris pH 8, 100 mM NaCl, 5% glycerol, 2 mM DTT; molecular mass from the Porod volume

SYT1C2A (SYT1C2A) [°C]	Molecule	stoichiometry N [1]
64.2 ± 0.1	O=P(O)(O)O[C@H]1[C@H](O)[C@@H](O)[C@H](OP(=O)(O)O)[C@@H](OP(=O)(O)O)[C@H]1O [IP(1,3,4), inositol 1,3,4-trisphosphate]	–
62.6 ± 0.2	O=P(O)(O)O[C@@H]1[C@@H](OP(=O)(O)O)[C@H](OP(=O)(O)O)[C@@H](O)[C@@H](O)[C@H]1OP(=O)(O)O [IP(1,4,5,6), inositol 1,4,5,6-tetraphosphate]	–
65.2 ± 0.4	O=P(O)(O)O[C@H]1[C@H](OP(=O)(O)O)[C@@H](OP(=O)(O)O)[C@@H](O)[C@@H](O)[C@@H]1OP(=O)(O)O [IP(3,4,5,6), inositol 3,4,5,6-tetraphosphate]	–

The remaining lines, values behind:

Molecule	SYT1C2A (SYT1C2A) [°C]	stoichiometry N [1]
O=P(O)(O)O[C@H]1[C@H](O)[C@@H](O)[C@H](OP(=O)(O)O)[C@@H](O)[C@H]1O [IP2, inositol 1,4-biphosphate]	59.4 ± 0.2	–
O=P(O)(O)O[C@@H]1[C@H](O)[C@H](O)[C@@H](OP(=O)(O)O)[C@H](OP(=O)(O)O)[C@H]1O [IP3, inositol 1,4,5-trisphosphate]	62.60 ± 0.05	–
SYT1-SMPC2A (Arabidopsis synaptotagmin 1, SMP and C2A domains, residues N34-E397) (domain or fragment, UniProt Q9SKR2 34-397, looked up, Expressed from pGEX6P1; also called SMP2C2A; source: E. coli Rosetta 2 (DE3) pLysS, purified (Glutathione Sepharose 4B, GST cleaved with Precission protease, Superdex 200)) NDVKDPEIRSIADQDPKAMLRMLPEIPLWVKNPDFDRVDWINRFLEYMWPYLDKAICKTAKNIAKPIIEEQIPKYKIDSVEFETLTLGSLPPTFQGMKVYLTDEKELIMEPCLKWAANPNILVAIKAFGLKATVQVVDLQVFAQPRITLKPLVPSFPCFANIYVSLMEKPHVDFGLKLGGADLMSIPGLYRFVQEQIKDQVANMYLWPKTLVVPILDPAKAFRRPVGIVHVKVVRAVGLRKKDLMGGADPFVKIKLSEDKIPSKKTTVKHKNLNPEWNEEFKFSVRDPQTQVLEFSVYDWEQVGNPEKMGMNVLALKEMVPDEHKAFTLELRKTLDGGEDGQPPDKYRGKLEVELLYKPFTEEE	–	2
